For assay [1], the system named is Rattus norvegicus. The assay can be described thus: Utilization of DA/g by total brain without cerebellum following alpha-MT (250 mg/kg) at a dose of 10 mg/kg. It counts as functional.
Assay [2] has as its system Rattus norvegicus. The assay is described as follows: Percent difference of L-DOPA accumulation when compared to saline at a dose of 10 mg/kg. It counts as functional.
Assay [3] has as its system Rattus norvegicus. The assay is described as follows: Accumulation of nmol of L-DOPA/g of tissue weight corpus striatum elicited by injection of GBL and NSD at a dose of 10 mg/kg. The class given is functional.
Assay [4] deals with Rattus norvegicus. The assay is described as follows: Percent difference of DA utilization when compared to saline at a dose of 10 mg/kg. It counts as functional.
Assay [5] relates to Rattus norvegicus. The assay is described as follows: Percent difference of L-DOPA accumulation when compared to saline at a dose of 1.0 mg/kg.

Nine molecules from ChEMBL document CHEMBL1123692, “Dopamine autoreceptor agonists: resolution and pharmacological activity of 2,6-diaminotetrahydrobenzothiazole and an aminothiazole analogue of apomorphine” (J Med Chem, 1987) can be followed below.

In the case of `CN1CCc2cccc3c2C1Cc1sc(N)nc1-3` (racemic), the DA utilization in the assay with Rattus norvegicus [1] is 3721. The Difference in the assay on Rattus norvegicus [2] is -38%; in the assay with Rattus norvegicus [4], 34%. The molecule further came in with an Accumulation with Rattus norvegicus [3] of 14.9.

On to `CN1CCc2cccc3c2[C@H]1Cc1ccc(O)c(O)c1-3` [APOMORPHINE], for which the DA utilization in the assay on Rattus norvegicus [1] is reported as 4008. The figures for the Difference in the assay with Rattus norvegicus [2] and in the assay with Rattus norvegicus [4] were -63% and 44%, respectively. Also, the Accumulation in the assay on Rattus norvegicus [3] came to 8.9.

With `CCCN[C@H]1CCc2nc(N)sc2C1.Cl.Cl`, in the assay on Rattus norvegicus [1], the DA utilization amounted to 6417. In the assay on Rattus norvegicus [3], this molecule had an Accumulation of 11.3. Moreover, the Difference in the assay on Rattus norvegicus [5] was -53%.

With `CCCN1CCCC2Cc3nc(N)sc3CC21` (stereo unspecified), in the assay with Rattus norvegicus [1], the DA utilization was 4863. The Difference is on record as -62% in the assay with Rattus norvegicus [2] and 75% in the assay with Rattus norvegicus [4]. In addition, in the assay with Rattus norvegicus [3], the Accumulation stood at 9.1.

As to `CN1CCc2cccc3c2C1Cc1sc(N)nc1-3.Cl.Cl` (single isomer, unassigned; (+)), the DA utilization with Rattus norvegicus [1] (10 mg/kg) was 2441. In addition, the figures for the Difference in the assay on Rattus norvegicus [2] (10 mg/kg) and in the assay with Rattus norvegicus [4] (10 mg/kg) were 1% and -12%, respectively. For the same molecule, in the assay with Rattus norvegicus [3] (10 mg/kg), the Accumulation amounted to 24.4.

In the case of `CN1CCc2cccc3c2C1Cc1sc(N)nc1-3.Cl.Cl` (single isomer, unassigned; (-)), the DA utilization in the assay with Rattus norvegicus [1] (10 mg/kg) is 3917. Further, the figures for the Difference with Rattus norvegicus [2] (10 mg/kg) and in the assay on Rattus norvegicus [4] (10 mg/kg) were -16% and 41%, respectively. In the assay on Rattus norvegicus [3] (10 mg/kg), this molecule had an Accumulation of 20.1.

In the assay with Rattus norvegicus [1], `Cl.Cl.Nc1nc2c(s1)C[C@@H](N)CC2` showed a DA utilization of 2317. In addition, the Difference in the assay with Rattus norvegicus [4] was -17%.

`CCCN[C@@H]1CCc2nc(N)sc2C1.Cl.Cl` gave a DA utilization in the assay with Rattus norvegicus [1] of 5104. Further, in the assay with Rattus norvegicus [3], the Accumulation is 19. Moreover, the Difference was 84% with Rattus norvegicus [4] and -21% with Rattus norvegicus [5].

With `Cl.Cl.Nc1nc2c(s1)C[C@H](N)CC2`, the DA utilization with Rattus norvegicus [1] is 2441. For the same molecule, the Difference in the assay with Rattus norvegicus [4] was -12%.
